These are literature values, as cited in patent US6562605B1, “Extraction of water soluble biomaterials from fluids using a carbon dioxide/surfactant mixture” (Genencor International, Inc., priority 1995, dated 2003).

The mark [1] stands for this setting: to 388 bar, 50° C. printed at first prior art line.

Like-named read-outs stand apart in the source and are kept apart here.

`CCCCCCS(=O)(=O)[O-].[Na+]` [Alkyl sulfonate (C6, sodium salt, Fluka)]: the “Solubility in carbon dioxide” value under setting [1] is given as “insoluble to 388 bar (50° C.)”.
`CCCCCCCCS(=O)(=O)[O-].[Na+]` [Alkyl sulfonate (Niacet, NAS 08)]: the “Solubility in carbon dioxide” value (to 585 bar) was “insoluble to 585 bar”.
In the case of `CCCCCCCCCCCCCC[N+](C)(C)C.[Br-]` [Tetradecyl trimethyl ammonium bromide], the “Solubility in carbon dioxide” value under setting [1] is listed as “insoluble to 388 bar”.
Regarding “Sorbitan monostearate [Sorbitan monostearate (Fluka, Span 60)]”, under “at 377 bar”, the “Solubility in carbon dioxide” value is reported as “slightly soluble at 377 bar”.
Regarding “Sorbitan trioleate [Sorbitan trioleate (Fluka, Span 80)]”, the “Solubility in carbon dioxide” value (at 377 bar) is “slightly soluble at 377 bar”.
